Patent US11117919B2, “Icariside compound, preparation method thereof, and application thereof” (FOSHAN GOLDEN HEALTH TECHNOLOGY CO., LTD., priority 2015, dated 2021)

Experiments:
xenograft tumor = experiment: Xenograft tumor growth in nude mice; type: in vivo, BALB/c (nu/nu) female nude mice; conditions: intraperitoneal 0.02 and 0.1 mg/10 g every 2 days, 30-day period
Experimental: The test used 4-6 weeks old BALB/c (nu/nu) female nude mice weighed 18-22 g fed in a SPF clean room with free access to food and water. […] When the tumor grew to the initial volume for administration with a pharmaceutical (100 mm^3), these mice were divided into groups with 10 mice for each group. For each group, nude mice were injected intraperitoneally: (1) the blank control group was injected with 0.1 ml/10 g solvent (5% DMSO+95% physiological saline); […] The administration was conducted every 2 days in a 30-day period. Vernier caliper was used to measure the largest longitudinal diameter (L) and transverse diameter (S) of tumor every two days. The approximate volume of the tumor was calculated with the equation of V (cm^3)=0.5×L× S^2 to plot a tumor growth curve. After the pharmaceutical treatment, the tumor was stripped and weighed for record.

[1] = system: S180 ascites tumor of mice; experiment: Inhibition of S180 tumor growth in mice; conditions: for change of body weight (g) / tumor inhibition rate (%) with physiological saline group as control / tumor inhibition rate (%) with solvent group as control / weight of tumor (x ± SD, g): 10 days
Experimental: NIH mice used for the tests were about 18-22 grams and divided into 10 mice per group. The liquid (0.2 ml) of S180 ascites tumor of mice was inoculated subcutaneously into the armpit region of mice. The next day after the inoculation, each group of mice were injected intraperitoneally: (1) physiological saline group; (2) solvent control group (DMSO); (3) positive control group [cyclophosphamide 60 mg/(kg·d)]; (4) low-dose group 1: icariside I 2 mg/(kg·d); (5) low-dose group 2: icariside I 5 mg/(kg·d); (6) middle-dose group: icariside I 10 mg/(kg·d); (7) high-dose group: icariside I 20 mg/(kg·d). After administration for 10 continuous days, the administration was stopped and on the next day, the mice were weighed and sacrificed with tumor mass stripped and weighed. The physiological saline group and solvent group were used as a control for calculation of tumor inhibition rate.

PBMCs from healthy human = experiment: IFN-γ production by PBMCs of healthy human cultured with icariside I (Example 9); type: cell-based; conditions: 0.1, 0.5, 1 μg/ml, 48 h
Experimental: (1) Isolation of human peripheral blood mononuclear cells (PBMCs): according to the method stated in Example 5 (2), normal human peripheral blood PBMCs were prepared.
(§1) (3) PBMCs and PFMCs cell culture (MLC) with stimulation by a pharmaceutical: Icariside I was used at concentrations of 0.1 μg/ml, 0.5 μg/ml, and 1 μg/ml respectively to stimulate PBMCs and PFMCs under the incubation condition at 37° C. with 5% CO2 for 48 hours.
(4) ELISA assay for analysis of IFN-γ: according to the method stated in Example 5 (4), the levels of γ-interferon produced by PBMCs and PFMCs after culture with pharmaceutical stimulations were measured.
PBMCs from healthy human and PFMCs from TB infected patients were respectively cultured for 2 days (48 h), then added or not added with the pharmaceutical icariside I (at a gradient of different concentrations). […] Among the tests, the concentrations of icariside I added were 0.1, 0.5 and 1 μg/ml. *P<0.05; **-***P<0.01.

[2] = system: PFMCs from TB infected patients; experiment: IFN-γ production by pleural fluid cells (PFMCs) of tuberculosis patients; type: cell-based, human; conditions: 0.1, 0.5, 1 μg/ml, 48 h
Experimental: (2) Isolation of Pleural fluid cells (PFMCs, namely cells stimulated by tuberculosis bacteria infection) from patients suffering from tuberculosis: blood samples were taken from volunteers (vein blood of TB patients) and then anticoagulated with heparin and diluted with an equal volume of Hank's solution. The solution was centrifuged once (1800 rpm, 22° C. 8 minutes). After removal of the supernatant, an appropriate amount of ELS (erythrocyte lysate) was added for re-suspension. After 3-5 minutes, an appropriate amount of Hank's solution was added for stop and then the mixture was centrifuged twice (1800 rpm, 22° C. 8 minutes), followed by addition of RPMI1640 complete medium to adjust the PBMC cell concentration to 2×10^9 cells/L.
as §1
(4) ELISA assay for analysis of IFN-γ: according to the method stated in Example 5 (4), the levels of γ-interferon produced by PBMCs and PFMCs after culture with pharmaceutical stimulations were measured. […]

[3] = type: in vivo; conditions: observation for 14 days
Experimental: Mice weighed 18-22 grams were randomly divided into six groups with 10 mice each group. Each individual group of mice were treated (orally) with: physiological saline, DMSO 2.5 ml/kg, and icariside I: 2000 mg/kg, 1000 mg/kg, 500 mg/kg, 100 mg/kg respectively. […] Therefore, the acute toxicity of icariside I is very low which is safe for use in preparation of pharmaceuticals, health products, food, and cosmetic and skin care products for prevention and treatment of immunity-related diseases.

COc1ccc(-c2oc3c(CC=C(C)C)c(O[C@@H]4O[C@H](CO)[C@@H](O)[C@H](O)[C@H]4O)cc(O)c3c(=O)c2O)cc1 [icariside I]
growth and development of the transplanted tumor mass in nude mice (xenograft tumor): significantly inhibit | tumorigenesis and tumor progression in mice ([1]; S180, intraperitoneal, 10 continuous days, 2-20 mg/(kg·d)): significantly inhibit | change of body weight (g) ([1]; high dose 20 mg/Kg i.p.): +9.0 g | tumor inhibition rate (%) with physiological saline group as control ([1]; high dose 20 mg/Kg i.p.): 67.3% | tumor inhibition rate (%) with solvent group as control ([1]; high dose 20 mg/Kg i.p.): 74.6% | weight of tumor (x ± SD, g) ([1]; high dose 20 mg/Kg i.p.): 0.34 ± 0.12 g | change of body weight (g) ([1]; low dose 2 mg/Kg i.p.): +11.6 g | tumor inhibition rate (%) with physiological saline group as control ([1]; low dose 2 mg/Kg i.p.): 5.8% | tumor inhibition rate (%) with solvent group as control ([1]; low dose 2 mg/Kg i.p.): 26.9% | weight of tumor (x ± SD, g) ([1]; low dose 2 mg/Kg i.p.): 0.98 ± 0.47 g | change of body weight (g) ([1]; low dose 5 mg/Kg i.p.): +12.5 g | tumor inhibition rate (%) with physiological saline group as control ([1]; low dose 5 mg/Kg i.p.): 26.0% | tumor inhibition rate (%) with solvent group as control ([1]; low dose 5 mg/Kg i.p.): 42.5% | weight of tumor (x ± SD, g) ([1]; low dose 5 mg/Kg i.p.): 0.77 ± 0.47 g | change of body weight (g) ([1]; middle dose 10 mg/Kg i.p.): +10.6 g | tumor inhibition rate (%) with physiological saline group as control ([1]; middle dose 10 mg/Kg i.p.): 38.5% | tumor inhibition rate (%) with solvent group as control ([1]; middle dose 10 mg/Kg i.p.): 52.2% | weight of tumor (x ± SD, g) ([1]; middle dose 10 mg/Kg i.p.): 0.64 ± 0.25 g | effect on PBMCs in producing IFN-γ (PBMCs from healthy human): no significant promoting effect | effect on PFMCs in producing IFN-γ [2]: significant and dose dependent effect | acute toxicity LD50 ([3]; mice, oral): greater than 2000 mg/kg | deaths of test mice ([3]; oral 100-2000 mg/kg): none of the test mice died
